ChEMBL document CHEMBL5107966, “Cascade synthetic strategies opening access to medicinal-relevant aliphatic 3- and 4-membered N-heterocyclic scaffolds” (Eur J Med Chem, 2022)
In brackets after ≈: the same amount, converted by molar mass.

What was measured:
HepG2 = test: Antiproliferative activity against human HepG2 cells assessed as reduction in cell viability incubated for 72 hrs by CCK-8 assay; assay type: functional, cell-based; conditions: HepG2, 72 h
A-431 = test: Antiproliferative activity against human A-431 cells assessed as reduction in cell viability incubated for 72 hrs by CCK-8 assay; assay type: functional, cell-based; conditions: A-431, 72 h
U-251 = test: Antiproliferative activity against human U-251 cells assessed as reduction in cell viability incubated for 72 hrs by CCK-8 assay; assay type: functional, cell-based; conditions: U-251, 72 h
HCT-116 [1] = test: cells; conditions: Homo sapiens, HCT-116, 72 h
HCT-116 [2] = test: Cytotoxicity against human HCT-116 cells assessed as cell viability incubated for 24 hrs by MTT assay; assay type: functional, cell-based; conditions: HCT-116, 24 h
RAW264.7 [3] = test: Cytotoxicity against mouse RAW264.7 by WST-1 vital dye reagent method; assay type: functional, cell-based
RAW264.7 [4] = test: Inhibition of NO release in mouse RAW264.7 incubated for 15 mins by fluoroscence-luminescence reader infinite M200 Pro analysis; assay type: functional, cell-based; conditions: RAW264.7, 0.25 h
Staphylococcus aureus [5] = test: Antimicrobial activity against Staphylococcus aureus incubated for 18 to 24 hrs; assay type: functional; conditions: time 18-24 hrs
Enterobacter cloacae = test: Antimicrobial activity against Enterobacter cloacae incubated for 18 to 24 hrs; assay type: functional; conditions: time 18-24 hrs
Pseudomonas aeruginosa [6] = test: Antimicrobial activity against Pseudomonas aeruginosa incubated for 18 to 24 hrs; assay type: functional; conditions: time 18-24 hrs
Enterococcus faecium = test: Antimicrobial activity against Enterococcus faecium incubated for 18 to 24 hrs; assay type: functional; conditions: time 18-24 hrs
Escherichia coli = test: Antimicrobial activity against Escherichia coli ATCC 8739; assay type: functional
Staphylococcus aureus [7] = test: Antimicrobial activity against Staphylococcus aureus ATCC 29213; assay type: functional
Pseudomonas aeruginosa [8] = test: Antimicrobial activity against Pseudomonas aeruginosa MCCB 0035; assay type: functional
Candida albicans = test: Antimicrobial activity against Candida albicans NCIM 2087; assay type: functional
Aspergillus fumigatus = test: Antimicrobial activity against Aspergillus fumigatus NCIM 2081; assay type: functional
Aspergillus niger = test: Antimicrobial activity against Aspergillus niger […]; assay type: functional
HCT-116 [9] = test: Cytotoxicity against human HCT-116 cells; assay type: functional, cell-based
A549 = test: Cytotoxicity against human A549 cells
HeLa = test: Cytotoxicity against human HeLa cells
A2780 = test: Cytotoxicity against human A2780 cells; assay type: functional, cell-based

## COc1cc(-c2cc(C3CN(c4cccc(C#N)n4)C3)ccc2OC)ccn1
HepG2
  EC50: 0.46 µM
A-431
  EC50: 0.7 µM
U-251
  EC50: 1.2 µM
HCT-116 [1]
  EC50: 15 µM

## CCOP(=O)(O)C1CN1Cc1ccccc1 (configuration not stated)
HCT-116 [2]
  IC50: 7.79 µM

## Nc1cccc([C@@H]2[C@H](Oc3ccc4ccccc4c3)C(=O)N2CCCN2CCOCC2)c1
RAW264.7 [3]
  IC50: > 500 µM
RAW264.7 [4]
  IC50: 5.73 µM

## CC[C@@]1(O)C(=O)OCc2c1cc1n(c2=O)Cc2cc3ccccc3nc2-1 [CAMPTOTHECIN]
HCT-116 [2]
  IC50: 0.00201 µM

## O=C(O)C1N=C1c1ccccc1 (configuration not stated)
Staphylococcus aureus [5]
  MIC: 9 µg/mL (≈ 55.8 µM)
Enterobacter cloacae
  MIC: 9 µg/mL (≈ 55.8 µM)
Pseudomonas aeruginosa [6]
  MIC: 9 µg/mL (≈ 55.8 µM)
Enterococcus faecium
  MIC: 9 µg/mL (≈ 55.8 µM)

## CC1(C)S[C@@H]2[C@H](NC(=O)[C@H](N)c3ccccc3)C(=O)N2[C@H]1C(=O)O [AMPICILLIN]
Escherichia coli
  MIC: 1 µg/mL (≈ 2.86 µM)
Staphylococcus aureus [7]
  MIC: 2 µg/mL (≈ 5.72 µM)
Pseudomonas aeruginosa [8]
  MIC: 4 µg/mL (≈ 11.4 µM)

## COc1cc([C@@H]2c3cc4c(cc3[C@@H](O[C@@H]3O[C@@H]5CO[C@@H](C)O[C@H]5[C@H](O)[C@H]3O)[C@H]3COC(=O)[C@H]23)OCO4)cc(OC)c1O [ETOPOSIDE]
HCT-116 [2]
  IC50: 26.1 µM

## O=C1[C@@H](Oc2ccc(Cl)cc2)[C@@H](c2ccccc2[N+](=O)[O-])N1N1CCOCC1
RAW264.7 [3]
  IC50: > 500 µM
RAW264.7 [4]
  IC50: 7.92 µM

## O=C1[C@@H](Oc2ccc(Cl)cc2Cl)[C@@H](c2ccc([N+](=O)[O-])cc2)N1CCCN1CCOCC1
RAW264.7 [3]
  IC50: 291 µM
RAW264.7 [4]
  IC50: 4.14 µM

## Cc1ccc(S(=O)(=O)N2C(=O)C(Cl)[C@H]2c2ccc(F)cc2)cc1 (some centres not stated)
Candida albicans
  MIC: 2 µg/mL (≈ 5.65 µM)
Escherichia coli
  MIC: 0.5 µg/mL (≈ 1.41 µM)
Aspergillus fumigatus
  MIC: 2 µg/mL (≈ 5.65 µM)
Staphylococcus aureus [7]
  MIC: 1 µg/mL (≈ 2.83 µM)
Pseudomonas aeruginosa [8]
  MIC: 4 µg/mL (≈ 11.3 µM)
Aspergillus niger
  MIC: 8 µg/mL (≈ 22.6 µM)

## Cc1ccc(S(=O)(=O)N2C(=O)C(Cl)[C@H]2c2ccccc2F)cc1 (some centres not stated)
Candida albicans
  MIC: 16 µg/mL (≈ 45.2 µM)
Escherichia coli
  MIC: 4 µg/mL (≈ 11.3 µM)
Aspergillus fumigatus
  MIC: 4 µg/mL (≈ 11.3 µM)
Staphylococcus aureus [7]
  MIC: 4 µg/mL (≈ 11.3 µM)
Pseudomonas aeruginosa [8]
  MIC: 32 µg/mL (≈ 90.4 µM)
Aspergillus niger
  MIC: 16 µg/mL (≈ 45.2 µM)

## CCOP(=O)(O)C1CN1C(C)c1ccc2ccccc2c1 (configuration not stated)
HCT-116 [2]
  IC50: 12.3 µM

## Cc1ccc(S(=O)(=O)N2C(=O)C(Cl)[C@H]2c2cccc(F)c2)cc1 (some centres not stated)
Candida albicans
  MIC: 8 µg/mL (≈ 22.6 µM)
Escherichia coli
  MIC: 2 µg/mL (≈ 5.65 µM)
Aspergillus fumigatus
  MIC: 16 µg/mL (≈ 45.2 µM)
Staphylococcus aureus [7]
  MIC: 8 µg/mL (≈ 22.6 µM)
Pseudomonas aeruginosa [8]
  MIC: 16 µg/mL (≈ 45.2 µM)
Aspergillus niger
  MIC: 16 µg/mL (≈ 45.2 µM)

## Cc1ccc(C(OC(=O)C2N=C2c2ccccc2Br)C(=O)NC(C)(C)C)cc1 (configuration not stated)
Staphylococcus aureus [5]
  MIC: 16 µg/mL (≈ 36.1 µM)
Enterobacter cloacae
  MIC: 75 µg/mL (≈ 169 µM)
Pseudomonas aeruginosa [6]
  MIC: 150 µg/mL (≈ 338 µM)
Enterococcus faecium
  MIC: 16 µg/mL (≈ 36.1 µM)

## COc1ccc(C2NC2c2cc(OC)c(OC)c(OC)c2)cc1 (configuration not stated)
HCT-116 [9]
  IC50: 5.44 µM
A549
  IC50: 8.74 µM
HeLa
  IC50: 4.93 µM
A2780
  IC50: 4.68 µM

## Cc1cc(NS(=O)(=O)c2ccc(N)cc2)no1 [SULFAMETHOXAZOLE]
Staphylococcus aureus [5]
  MIC: 16 µg/mL (≈ 63.2 µM)
Enterobacter cloacae
  MIC: 8 µg/mL (≈ 31.6 µM)
Pseudomonas aeruginosa [6]
  MIC: 8 µg/mL (≈ 31.6 µM)
Enterococcus faecium
  MIC: 4 µg/mL (≈ 15.8 µM)

## CCOP(=O)(O)C1CN1C1CCCCC1 (configuration not stated)
HCT-116 [2]
  IC50: 16.1 µM

## Clc1ccccc1C(c1ccccc1)(c1ccccc1)n1ccnc1 [CLOTRIMAZOLE]
Candida albicans
  MIC: 4 µg/mL (≈ 11.6 µM)
Aspergillus fumigatus
  MIC: 1 µg/mL (≈ 2.9 µM)
Aspergillus niger
  MIC: 16 µg/mL (≈ 46.4 µM)

## COc1ccc(C2CN(c3cccc(C#N)n3)C2)cc1-c1ccnc(N)c1
HepG2
  EC50: 5.66 µM
U-251
  EC50: 0.03 µM
HCT-116 [1]
  EC50: 0.36 µM

## COc1cccc2c1C(=O)c1c(O)c3c(c(O)c1C2=O)C[C@@](O)(C(=O)CO)C[C@@H]3O[C@H]1C[C@H](N)[C@H](O)[C@H](C)O1 [DOXORUBICIN]
HepG2
  EC50: 0.67 µM
A-431
  EC50: 0.7 µM
U-251
  EC50: 0.07 µM
HCT-116 [1]
  EC50: 0.16 µM
